From ChEMBL document CHEMBL1201862, “PubChem BioAssay data set” (2004)
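A five-concentration, 48-hour dose response in 96-well plates underlies each endpoint, interpolated linearly between surrounding concentrations. At the GI50, growth is halved.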 Activity calls are given as the source filed them. Rule as the data show it: active = GI50 up to about 1.1 µM and inactive = higher. Where a SMILES comes first, the peptide text is derived from it.

Assays:
Assay in all cases: DTP human tumour cell line panel, 48 h
[1] = system: Malme-3M
[2] = system: UO-31
[3] = system: A549
[4] = system: UACC-257
[5] = system: SR
[6] = system: A498
[7] = system: U-251
[8] = system: SK-MEL-28
[9] = system: SK-MEL-5
[10] = system: IGROV-1
[11] = system: SW-620
[12] = system: NCI-H23
[13] = system: HCT-116
[14] = system: HCC 2998
[15] = system: NCI-H460
[16] = system: M14
[17] = system: KM12
[18] = system: DMS-273
[19] = system: ACHN
[20] = system: NCI-H522

Measured: GI50

CO/N=C1\CC(NC(=O)CNC(=O)OC(C)(C)C)c2ccsc21 (centres undefined)
inactive: [1] > 100 µM | [2] > 100 µM | [3] > 100 µM | [4] > 100 µM | [5] > 100 µM | [6] > 100 µM | [7] > 100 µM | [8] > 100 µM | [9] 81.5 µM | [10] > 100 µM | [11] > 100 µM | [12] > 100 µM | [13] > 100 µM | [14] > 100 µM | [15] > 100 µM | [16] > 100 µM

COc1nc(NC2OCC(OC(C)=O)C(OC(C)=O)C2OC(C)=O)c(/N=C(\C)C(C)=O)c(=O)n1C (centres undefined)
inactive: [1] > 100 µM | [2] > 100 µM | [3] > 100 µM | [4] > 100 µM | [5] > 100 µM | [6] > 100 µM | [7] > 100 µM | [8] > 100 µM | [9] > 100 µM | [10] > 100 µM | [17] > 100 µM | [11] > 100 µM | [12] > 100 µM | [18] > 100 µM | [19] > 100 µM | [13] > 100 µM | [15] > 100 µM | [16] > 100 µM

CN1Nc2ccccc2CC1=O
inactive: [1] > 100 µM | [2] > 100 µM | [3] > 100 µM | [4] > 100 µM | [6] > 100 µM | [7] > 100 µM | [8] > 100 µM | [9] > 100 µM | [10] > 100 µM | [17] > 100 µM | [11] > 100 µM | [12] > 100 µM | [18] > 100 µM | [19] > 100 µM | [13] > 100 µM | [14] > 100 µM | [15] > 100 µM | [16] > 100 µM

Nc1nc(=O)[nH]c2c1cnn2Cc1ccccc1
inactive: [1] > 100 µM | [2] > 100 µM | [3] > 100 µM | [4] > 100 µM | [5] > 100 µM | [6] > 100 µM | [7] 1.4 µM | [8] 1.88 µM | [9] > 100 µM | [10] > 100 µM | [17] > 100 µM | [11] > 100 µM | [12] 1.56 µM | [18] > 100 µM | [19] > 100 µM | [13] > 100 µM | [15] > 100 µM | [16] > 100 µM

N#CCCN(CCC#N)c1ccc(/C=C(\NC(=O)c2cc([N+](=O)[O-])ccc2Cl)C(=O)Nc2ccccc2)cc1
inactive: [2] > 100 µM | [3] > 100 µM | [5] 36.3 µM | [7] > 100 µM | [8] > 100 µM | [9] > 100 µM | [10] > 100 µM | [17] > 100 µM | [12] > 100 µM | [18] 54.2 µM | [20] 44.2 µM | [19] 12.2 µM | [13] 78.7 µM

Cc1cc(O)nc(NN2C(Cl)C(=O)C2c2ccc([N+](=O)[O-])cc2)n1 (centres undefined)
inactive: [2] 13.9 µM | [3] 14.7 µM | [4] 16 µM | [5] 6.15 µM | [7] 13.8 µM | [8] 11.9 µM | [9] 13.5 µM | [10] 4.03 µM | [17] > 10 µM | [11] 20.5 µM | [12] 7.18 µM | [18] 8.34 µM | [19] 7.4 µM | [13] 9.38 µM | [14] 15.3 µM | [15] 4.04 µM | [16] 11 µM

CCOc1ccc(/C=C2\N=C(c3ccccc3)OC2=O)cc1
inactive: [2] > 100 µM | [3] > 100 µM | [4] > 100 µM | [5] > 100 µM | [7] > 100 µM | [8] > 100 µM | [9] > 100 µM | [10] > 100 µM | [17] > 100 µM | [11] > 100 µM | [12] > 100 µM | [20] 48.5 µM | [19] > 100 µM | [14] > 100 µM | [15] > 100 µM | [16] > 100 µM

NCCCCC(N)C(=O)N1CCN(c2nc(N3CCCC3)c3nc(Cl)c(NCc4ccccc4)nc3n2)CC1 (centres undefined)
inactive: [1] 23 µM | [2] 17.5 µM | [3] 18.5 µM | [4] 18.2 µM | [5] 18.1 µM | [7] 18.9 µM | [8] 20.7 µM | [9] 18.1 µM | [10] 14.1 µM | [17] 21.8 µM | [11] 19.6 µM | [12] 19.4 µM | [20] 19.3 µM | [19] 19.1 µM | [13] 16.6 µM | [14] 19.1 µM | [15] 17.5 µM | [16] 19.1 µM

O=C1/C(=C/c2cccc(Br)c2)Cc2ccccc21
inactive: [1] > 100 µM | [2] 31.8 µM | [3] 26.8 µM | [4] 91 µM | [5] 24.5 µM | [7] > 100 µM | [8] > 100 µM | [10] 16.8 µM | [17] 19.3 µM | [11] > 100 µM | [12] 25.9 µM | [20] 96.4 µM | [19] > 100 µM | [13] 27.6 µM | [15] 30.8 µM | [16] 67.3 µM

COC1OCC(O)C(NC(=O)N(C)N=O)C1O (centres undefined)
inactive: [1] > 100 µM | [2] > 100 µM | [3] > 100 µM | [4] > 100 µM | [6] > 100 µM | [7] > 100 µM | [8] > 100 µM | [9] > 100 µM | [10] > 100 µM | [17] > 100 µM | [11] > 100 µM | [12] > 100 µM | [18] > 100 µM | [20] > 100 µM | [13] > 100 µM | [14] > 100 µM | [15] > 100 µM

NC(=O)C1CCCN1C(=O)C(N)Cc1ccccc1 (stereo not drawn) (H-Phe-Pro-NH2; configuration not given here)
inactive: [1] > 100 µM | [2] > 100 µM | [3] > 100 µM | [4] > 10 µM | [5] > 100 µM | [6] 76.7 µM | [7] > 100 µM | [8] > 100 µM | [9] > 100 µM | [10] > 100 µM | [11] > 100 µM | [20] > 100 µM | [19] > 100 µM | [13] > 100 µM | [14] > 100 µM | [15] > 100 µM | [16] > 100 µM
